US20060177385A1, “Compositions for treating dental caries caused by streptococcus mutans infection” (priority 2002, published 2006)

Assays:
[1] = molecular target: T1, Rhodobacter sphaeroides (Rb.s.) ADPG Ppase (Cereibacter sphaeroides, UniProt Q9RNH7); test: ADPG Ppase enzyme assay (14C Glc-1-P to ADPGlucose) with ADPG borano analogs; format: biochemical; design: *2.2: unit not given here; details: for inhibition of Rb.s. ADPG Ppase: 500 μM
T1 construct: made in house
From the text: Assaying for ADPGlc synthesis activity involves measuring the amount of 14-C labeled Glc-1-P converted to ADPGlucose (Preiss, J., Shen, L., Greenberg, E., and Gentner, N. (1966) Biochemistry 5, 1833-1845). Briefly, unreacted Glc-1-P is separated from product by the following steps: 1) digestion with alkaline phosphatase (thus removing the negatively charged phosphate); 2) spotting an aliquot of the reaction mixture on to positively charged DE-81 filters (Whatman); and 3) washing the filters with water (thus removing the now neutral C-14 glucose).
To assess the effect of a putative inhibitor, enzyme assays are performed at a subsaturating concentration of substrate (depending on the enzyme, ATP=0.2-1 mM, Glc-1-P=0.5 mM) under standard conditions in the absence and presence of the major activator for each enzyme (1-5 mM depending on enzyme). In this way, the effect of the inhibitors can be evaluated under the range of the expected in vivo conditions. Initial screening of a putative inhibitor typically includes testing at two concentrations (˜25 μM and 1 mM)±major activator with appropriate controls and blanks for a total of 9 assays/inhibitor/enzyme (2 control assays—appropriate enzyme concentrations in the absence of inhibitor, 4 experimental assays; 1 blank in the absence of inhibitors; 2 blanks in the presence of inhibitor (no activator required).
The APDGlc Ppase from Rhodobacter sphaeroides has been used as a model enzyme for initial testing of inhibitors as it has been cloned, sequenced, and expressed in the inventor's laboratory (Meyer et al (1999) Arch. Biochem. Biophys. 372, 179-188; Igarashi, R. Y. and Meyer, C. R. (2000) Arch. Biochem Biophys. 376, 47-58) and the purified recombinant enzyme is readily available. Further, this particular enzyme has the most complex regulation (having partial overlap with nearly every type of ADPG Ppase) and has sufficient homology (ranging from ˜40-70% similarity) to the enzyme primary sequence from the mentioned pathogenic bacteria.
1. OVERVIEW: 2 analogs (ANALOG; stereoisomers I, II) of adenosine-α-P-boranodiphosphoglucose were tested for inhibiting activity against the ADPG Ppase enzyme from Rhodobacter sphaeroides (Rb.s.) ADPG Ppase.
PREMIX: A: 100 mM HEPES (pH 7), 0.5 mg/mL BSA, 0.5 mM Glc-1-P, 0.25 mM ATP subsaturating (near S0.5 value), 5 mM MgCl2, (0.2 U Pyrophosphatase))
(170 μL premix will allow 20 μL for analog vol., 10 μL of E)
II. ANALOG CONC.=5, 50, 500 μM (STOCK CONC.=5 mM) in 50 mM HEPES, pH 7, note that 20 μL of 5 mM in 200 μL assay will yield 500 μM final concentration to obtain 5
• ANALOG I: add 625 μL of HEPES buffer, mix thoroughly • ANALOG II: add 500 μL of HEPES buffer, mix thoroughly 1:10 DILUTION ALIQUOTS OF 5 mM STOCKS are prepared in order to generate stock solutions that will give 50 and 5 μM with the addition of 20 μL. 100 μL aliquots are stored at −20 C RBS ADPG PPASE WT ENZYME CONC.=17 mg/mL (use 1:8000 dilution in Dilution Buffer) The Following Assay Set of 11 are Utilized for Each Analog 1—BLANK (Premix A) 2—BLANK+50 μM ANALOG (A) 3—BLANK+500 μM ANALOG (A) 4—E CON (A) 5—E CON+F6P (B) 6—E+5 μM (A) 7—E+5 μM (B) 8—E+50 μM (A) 9—E+50 μM (B) 10—E+500 μM (A) 11—E+500 μM (B)
Purified Rb.s ADPG Ppase was assayed under standard conditions (0.25 mM ATP [˜S0.5 value], 0.5 mM Glc-1-P, 5 mM Mg, 100 mM HEPES, pH7) in the presence and absence of the activator F6P (1 mM) at 3 concentrations of the analogs: 5, 50, and 500 μM. Analog stock solutions were made in 50 mM HEPES, pH 7). These concentrations should be regarded as estimates as there could have been some breakdown of the compounds during 2 years of storage at −20° C. The analogs had no effect on the background cpm of the assays.

bacteria = details: cited from earlier work
[2] = single rinse, mouthrinse, 10 subjects; cited from earlier work
[3] = 5 uM analog, premix B (+1 mM F6P)
[4] = 50 uM analog, premix A (no F6P)
[5] = 50 uM analog, premix B (+1 mM F6P)
[6] = 500 uM analog, premix A (no F6P)
[7] = 500 uM analog, premix B (+1 mM F6P)

T1 sequence (Q9RNH7 whole entry): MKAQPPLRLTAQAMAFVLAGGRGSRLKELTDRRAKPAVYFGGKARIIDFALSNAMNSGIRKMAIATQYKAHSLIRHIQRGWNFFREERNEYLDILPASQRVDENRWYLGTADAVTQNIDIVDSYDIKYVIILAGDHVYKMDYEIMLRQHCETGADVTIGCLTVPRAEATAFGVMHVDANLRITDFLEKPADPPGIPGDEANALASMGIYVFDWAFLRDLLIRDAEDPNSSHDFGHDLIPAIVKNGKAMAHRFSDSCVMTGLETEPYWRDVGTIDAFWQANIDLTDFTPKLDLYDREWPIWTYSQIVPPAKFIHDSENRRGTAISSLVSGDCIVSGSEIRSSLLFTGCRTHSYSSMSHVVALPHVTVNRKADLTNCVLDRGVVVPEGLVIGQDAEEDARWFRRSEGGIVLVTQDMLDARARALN

## BP(=O)(OC[C@H]1O[C@@H](n2cnc3c(N)ncnc32)[C@H](O)[C@@H]1O)OP(=O)(O)O[C@H]1O[C@H](CO)[C@@H](O)[C@H](O)[C@H]1O (single isomer, unassigned) [Analog I, adenosine-α-P-boranodiphosphoglucose]
[1]; 5 uM analog, premix A (no F6P)
  *2.2: 0.854
  CPM: 380.67 CPM
  Units/mg: 4.02 Units/mg
  cor. CPM: 320.34 CPM
  dil. Corr: 68.339 nmol/min/µL
  nmol: 0.39 nmol
  nmol/min: 0.085 nmol/min
  nmol/min/uL: 0.0085 nmol/min/µL
[1]; [3]
  *2.2: 19.496
  CPM: 7371.33 CPM
  Units/mg: 91.75 Units/mg
  cor. CPM: 7311.00 CPM
  dil. Corr: 1559.680 nmol/min/µL
  nmol: 8.86 nmol
  nmol/min: 1.950 nmol/min
  nmol/min/uL: 0.1950 nmol/min/µL
[1]; [4]
  *2.2: 0.755
  CPM: 359.33 CPM
  Units/mg: 3.55 Units/mg
  cor. CPM: 283.00 CPM
  dil. Corr: 60.373 nmol/min/µL
  nmol: 0.34 nmol
  nmol/min: 0.075 nmol/min
  nmol/min/uL: 0.0075 nmol/min/µL
[1]; [5]
  *2.2: 18.572
  CPM: 7041.00 CPM
  Units/mg: 87.40 Units/mg
  cor. CPM: 6964.67 CPM
  dil. Corr: 1485.796 nmol/min/µL
  nmol: 8.44 nmol
  nmol/min: 1.857 nmol/min
  nmol/min/uL: 0.1857 nmol/min/µL
[1]; [6]
  *2.2: 0.284
  CPM: 160.00 CPM
  Units/mg: 1.33 Units/mg
  cor. CPM: 106.33 CPM
  dil. Corr: 22.684 nmol/min/µL
  nmol: 0.13 nmol
  nmol/min: 0.028 nmol/min
  nmol/min/uL: 0.0028 nmol/min/µL
[1]; [7]
  *2.2: 11.341
  CPM: 4306.67 CPM
  Units/mg: 53.37 Units/mg
  cor. CPM: 4253.00 CPM
  dil. Corr: 907.307 nmol/min/µL
  nmol: 5.16 nmol
  nmol/min: 1.134 nmol/min
  nmol/min/uL: 0.1134 nmol/min/µL
[1]; absence of the activator F6P
  inhibition of Rb.s. ADPG Ppase: about 75%
[1]; presence of F6P
  inhibition of Rb.s. ADPG Ppase: ~50%

## BP(=O)(OC[C@H]1O[C@@H](n2cnc3c(N)ncnc32)[C@H](O)[C@@H]1O)OP(=O)(O)O[C@H]1O[C@H](CO)[C@@H](O)[C@H](O)[C@H]1O (single isomer, unassigned) [Analog II, adenosine-α-P-boranodiphosphoglucose]
[1]; 5 uM analog, premix A (no F6P)
  *2.2: 1.122
  CPM: 477.00 CPM
  Units/mg: 5.28 Units/mg
  cor. CPM: 420.67 CPM
  dil. Corr: 89.743 nmol/min/µL
  nmol: 0.51 nmol
  nmol/min: 0.112 nmol/min
  nmol/min/uL: 0.0112 nmol/min/µL
[1]; [3]
  *2.2: 19.946
  CPM: 7536.00 CPM
  Units/mg: 93.86 Units/mg
  cor. CPM: 7479.67 CPM
  dil. Corr: 1595.663 nmol/min/µL
  nmol: 9.07 nmol
  nmol/min: 1.995 nmol/min
  nmol/min/uL: 0.1995 nmol/min/µL
[1]; [4]
  *2.2: 0.930
  CPM: 399.67 CPM
  Units/mg: 4.38 Units/mg
  cor. CPM: 348.67 CPM
  dil. Corr: 74.383 nmol/min/µL
  nmol: 0.42 nmol
  nmol/min: 0.093 nmol/min
  nmol/min/uL: 0.0093 nmol/min/µL
[1]; [5]
  *2.2: 16.305
  CPM: 6165.33 CPM
  Units/mg: 76.73 Units/mg
  cor. CPM: 6114.33 CPM
  dil. Corr: 1304.390 nmol/min/µL
  nmol: 7.41 nmol
  nmol/min: 1.630 nmol/min
  nmol/min/uL: 0.1630 nmol/min/µL
[1]; [6]
  *2.2: 0.376
  CPM: 194.33 CPM
  Units/mg: 1.77 Units/mg
  cor. CPM: 141.00 CPM
  dil. Corr: 30.080 nmol/min/µL
  nmol: 0.17 nmol
  nmol/min: 0.038 nmol/min
  nmol/min/uL: 0.0038 nmol/min/µL
[1]; [7]
  *2.2: 7.122
  CPM: 2724.00 CPM
  Units/mg: 33.51 Units/mg
  cor. CPM: 2670.67 CPM
  dil. Corr: 569.743 nmol/min/µL
  nmol: 3.24 nmol
  nmol/min: 0.712 nmol/min
  nmol/min/uL: 0.0712 nmol/min/µL
[1]; absence of the activator F6P
  inhibition of Rb.s. ADPG Ppase: about 70%
[1]; presence of F6P
  inhibition of Rb.s. ADPG Ppase: about 70%

## [F-].[Na+] [NaF]
bacteria; relative to inhibitory concentration
  increase in concentration necessary to be bacteriocidal: 30 fold
bacteria; vehicles
  concentration required for inhibitory effects: > 100 μl/ml

## CCCCC(CC)CNC(=N)NC(=N)NCCCCCCNC(=N)NC(=N)NCC(CC)CCCC (stereo not drawn) [alexidine]
[2]
  return to pre-rinse levels after: 5 h

## N=C(NCCCCCCNC(=N)NC(=N)Nc1ccc(Cl)cc1)NC(=N)Nc1ccc(Cl)cc1.O=C(O)[C@H](O)[C@@H](O)[C@H](O)[C@H](O)CO.O=C(O)[C@H](O)[C@@H](O)[C@H](O)[C@H](O)CO [chlorhexidine gluconate]
[2]
  return to pre-rinse levels after: 7 h

## CCCCC(CC)CN1CN(CC(CC)CCCC)CC(C)(N)C1 (stereo not drawn) [hexetidine]
[2]
  return to pre-rinse levels after: 1.5 h
